Entries after “also recorded” stand apart in the source; their conditions may differ.
Assays:
[1] = test system: plasma branched chain amino acids (BCAA) and branched chain ketoacids (BCKA); test: Clinical protocol: plasma BCAA and BCKA before and after sodium phenylbutyrate; format: in vivo, human; conditions: day 3 vs baseline, listed as sodium phenylbutyrate
From the text: FIG. 1 is a graph representing levels of branched chain amino acids (BCAAs) in control subjects (N=3) at baseline and then after treatment with sodium phenylbutyrate (PBA). Abbreviations: Ile=Isoleucine; Leu=Leucine; Val=Valine. *: p<0.05. Values are average of three time points after two days of treatment. Study subjects received PBA at the dose of 10 gram/m^2/day divided in four equal doses every six hours for three days. The subjects received a constant protein intake of 0.6 grams/kg/day as a combination of BCAA-free formula and whole protein. Measurements were performed on day three at three different time points separated by 30 minutes in the fed state. Note that y-axis represents concentrations comparing baseline to three days of treatment.
FIG. 2 is a graph representing levels of branched chain ketoacids (BCKAs) in control subjects (N=3) at baseline and then after treatment with sodium phenylbutyrate. Abbreviations: KMV=α-keto-β-methylvalerate; KIC=α-ketoisocaproate; KIV=α-ketoisovalerate. *: p<0.05. Values are average of three time points after two days of treatment. Subjects were all on the same steady state protein intake for three days at testing. Study subjects received PBA at the dose of 10 gram/m^2/day divided in four equal doses every six hours for three days. The subjects received a constant protein intake of 0.6 grams/kg/day as a combination of BCAA-free formula and whole protein. Measurements were performed on day three at three different time points separated by 30 minutes in the fed state. Note that y-axis represents concentrations comparing baseline to three days of treatment.
FIG. 3 is a graph representing levels of branched chain amino acids (BCAAs) in MSUD patients (N=5) at baseline and then after treatment with sodium phenylbutyrate. Values are average of three time points after two days of treatment. Patients were all on steady state protein intake for three days at testing. Study subjects received PBA at the dose of 10 gram/m^2/day divided in four equal doses every six hours for three days. The subjects received a constant protein intake of 0.6 grams/kg/day as a combination of BCAA-free formula and whole protein. Measurements were performed on day three at three different time points separated by 30 minutes in the fed state. Abbreviations: Ile=Isoleucine; Leu=Leucine; Val=Valine. *: p<0.05. Note that y-axis represents concentrations comparing baseline to three days of treatment.
FIG. 4 is a graph representing levels of branched chain ketoacids (BCKAs) in MSUD patients (N=5) at baseline and then after treatment with sodium phenylbutyrate. Values are average of three time points after two days of treatment. Patients were all on steady state protein intake for three days at testing. […]

[2] = target: T1, mitochondrial branched chain amino transferase (BCATm) (Homo sapiens, UniProt O15382); test: BCATm activity with purified recombinant enzyme; format: biochemical; conditions: pH 8.0, 298 K
T1 sequence (O15382 28-392): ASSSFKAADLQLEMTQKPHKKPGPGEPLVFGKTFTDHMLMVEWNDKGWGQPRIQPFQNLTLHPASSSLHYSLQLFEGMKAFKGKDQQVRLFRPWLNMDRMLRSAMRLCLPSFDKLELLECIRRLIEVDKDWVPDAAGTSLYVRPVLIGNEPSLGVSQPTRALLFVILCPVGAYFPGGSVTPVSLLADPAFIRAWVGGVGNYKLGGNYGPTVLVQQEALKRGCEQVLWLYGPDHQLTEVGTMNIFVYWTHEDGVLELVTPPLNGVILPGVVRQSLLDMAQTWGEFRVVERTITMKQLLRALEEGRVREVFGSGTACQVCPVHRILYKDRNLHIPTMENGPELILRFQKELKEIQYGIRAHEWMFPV
Protocol: To determine the effect of phenylbutyrate on individual BCAA catabolic enzymes, activities of mitochondrial branched chain amino transferase (BCATm) and BCKDC enzymes were measured with and without phenylbutyrate using purified recombinant enzymes. BCATm generates the BCKA products that are elevated in MSUD and are the substrates for BCKDC. BCATm activity was measured at pH 8.0 and 298 K as described in Example 2. Kinetics of the E1 decarboxylase reaction with and without phenylbutyrate were determined in the presence of an artificial electron acceptor 2, 6-dichlorophenolindophenol (DCPIP). The assay mixture contained 100 mM potassium phosphate, pH 7.5, 2.0 mM MgCl2, 0.2 mM thiamin diphosphate (ThDP) and 0.1 mM DCPIP. The rate of decarboxylation at 30° C. was measured by monitoring the reduction of the dye at 600 nm (24, 25). For the overall BCKDC activity assay, the enzymes were exchanged into phosphate buffer (30 mM potassium phosphate, pH 7.5) containing 5 mM DTT using a PD-10 column and the enzyme concentrations were calculated from the absorption maxima at 280 nm. […] The overall reaction was monitored by formation of NADH at 340 nm. The apparent rate constants (kapp) at different substrate concentrations for all of the above assays were determined from the absorption changes at the individual wavelength maximum. […]

[3] = MSUD patients (N=5), three of five responders, 10 gram/m^2/day
[4] = healthy control subjects (N=3), 10 gram/m^2/day in four doses

BCATm kinetics including kcat and Km [2]: no effect
SMILES: O=C([O-])CCCc1ccccc1.[Na+] [phenylbutyrate, sodium 4-phenylbutyrate]
plasma BCAA levels [1, 3]: reduced; also recorded: decreased their BCAAs | plasma BCKA levels [1, 3]: significantly decreased; also recorded: decreased their BCKAs | plasma BCAA levels (isoleucine, leucine, valine) [1, 4]: reduced; also recorded: significantly decreased levels | plasma BCKA levels (KMV, KIC, KIV) [1, 4]: reduced; also recorded: decreased their BCKAs
